Usually EC50 stands for the concentration needed to bring the measured effect to its halfway point.

Experimental findings from patent publication US9586961B2, “Homopiperazine derivatives as protein tyrosine kinase inhibitors and pharmaceutical use thereof” (LEO PHARMA A/S, priority 2010, dated 2017) are described below.

Molecules are shown by their SMILES.

Holding throughout (assay type): biochemical
One assay concerns the target T1, JAK2 (Homo sapiens, UniProt O60674).
T1 construct: All four purified enzymes contain only the catalytic domain; His (N); purchased Carna Biosciences, Inc; host or cells: baculovirus expression system
Kind of assay: JAK2 kinase assay (HTRF, inhibition of phosphorylation of a synthetic peptide). Particulars: catalytic domain, His-tag; 4 μM ATP (Km); read-out: JAK2 kinase inhibitory activity (EC50). An outline of the steps: (§1)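 Baculovirus-expressed catalytic domains (GST-JAK1 aa 850-1154, GST-TYK2 aa 871-1187, His-JAK2, His-JAK3) phosphorylate 1 μM biotin-TK peptide 20-30 min at RT in 50 mM Hepes pH 7.0 with ATP at Km: JAK1 7 μM, JAK2 4 μM, JAK3 2 μM, TYK2 13 μM; 0.75% DMSO. Stopped with EDTA, HTRF read overnight.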
In general terms: Time-resolved FRET reads energy transfer from a long-lived donor to a nearby acceptor.

In another assay the target is T2, JAK1 (Homo sapiens, UniProt P23458).
T2 construct: JAK1 (aa 850-1154) and TYK2 (aa 871-1187) are expressed with an N-terminally fused GST-tag; GST (N); purchased Carna Biosciences, Inc; host or cells: baculovirus expression system
Kind of assay: JAK1 kinase assay (HTRF, inhibition of phosphorylation of a synthetic peptide). The conditions noted are these: catalytic domain aa 850-1154, GST-tag; 7 μM ATP (Km); read-out: JAK1 kinase inhibitory activity (EC50). In a few lines: as §1

The next assay deals with T3, JAK3 (Homo sapiens, UniProt P52333).
T3 construct: All four purified enzymes contain only the catalytic domain; His (N); purchased Carna Biosciences, Inc; host or cells: baculovirus expression system
Put plainly: JAK3 kinase assay (HTRF, inhibition of phosphorylation of a synthetic peptide). The conditions noted are these: catalytic domain, His-tag; 2 μM ATP (Km); read-out: JAK3 kinase inhibitory activity (EC50). An outline of the steps: as §1

T2 sequence (P23458 850-1154): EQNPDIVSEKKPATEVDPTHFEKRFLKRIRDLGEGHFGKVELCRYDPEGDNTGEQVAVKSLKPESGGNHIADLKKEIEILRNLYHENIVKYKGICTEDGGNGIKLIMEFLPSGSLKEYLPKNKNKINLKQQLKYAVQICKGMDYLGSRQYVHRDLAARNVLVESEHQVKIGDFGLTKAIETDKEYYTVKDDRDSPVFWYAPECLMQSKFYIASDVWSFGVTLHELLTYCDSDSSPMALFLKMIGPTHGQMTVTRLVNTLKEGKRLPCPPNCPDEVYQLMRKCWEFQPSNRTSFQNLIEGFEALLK
T1 sequence (O60674 849-1124 limits assumed): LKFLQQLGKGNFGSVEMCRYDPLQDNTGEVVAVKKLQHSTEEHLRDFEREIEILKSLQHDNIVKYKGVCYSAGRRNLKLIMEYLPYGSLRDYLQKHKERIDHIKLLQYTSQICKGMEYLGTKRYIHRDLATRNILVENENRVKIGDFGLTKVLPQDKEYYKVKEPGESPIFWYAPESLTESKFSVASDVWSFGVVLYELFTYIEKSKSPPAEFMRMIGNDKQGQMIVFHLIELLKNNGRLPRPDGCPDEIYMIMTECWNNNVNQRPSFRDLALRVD
T3 sequence (P52333 822-1111 limits assumed): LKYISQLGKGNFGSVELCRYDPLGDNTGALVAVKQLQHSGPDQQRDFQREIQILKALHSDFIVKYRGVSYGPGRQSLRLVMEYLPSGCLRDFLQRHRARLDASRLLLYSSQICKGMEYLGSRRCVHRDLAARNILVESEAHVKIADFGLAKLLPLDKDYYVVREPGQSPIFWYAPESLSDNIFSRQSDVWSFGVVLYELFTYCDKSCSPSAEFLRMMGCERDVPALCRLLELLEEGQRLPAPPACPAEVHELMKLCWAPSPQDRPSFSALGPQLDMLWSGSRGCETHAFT

Turning to `Cc1oncc1C(=O)N1CCCN(c2ncnc3[nH]ccc23)CC12CC2` [Example 187, (5-methylisoxazol-4-yl)-[5-(7H-pyrrolo[2,3-d]pyrimidin-4-yl)-5,9-diazaspiro[2.6]nonan-9-yl]methanone], the EC50 at JAK2, on JAK1 and on JAK3 was 100 to 1000 nM throughout.
As to `O=C(c1ccccn1)N1CCN(c2ncnc3[nH]ccc23)CC2(CC2)C1` [Example 188, 2-pyridyl-[5-(7H-pyrrolo[2,3-d]pyrimidin-4-yl)-5,8-diazaspiro[2.6]nonan-8-yl]methanone], the EC50 is 100 to 1000 nM on JAK2, above 1000 nM at JAK1 and above 1000 nM on JAK3.
For the compound `O=C(c1ccccn1)N1CCCN(c2ncnc3[nH]ccc23)CC12CC2` [Example 189, 2-pyridyl-[5-(7H-pyrrolo[2,3-d]pyrimidin-4-yl)-5,9-diazaspiro[2.6]nonan-9-yl]methanone], the EC50 at JAK2 was below 100 nM; on JAK1, 100 to 1000 nM; at JAK3, above 1000 nM.
Taken in the same sequence, the figures for `O=C(c1ccnc(O)c1)N1CCN(c2ncnc3[nH]ccc23)CC2(CC2)C1` [Example 190, (2-hydroxy-4-pyridyl)-[5-(7H-pyrrolo[2,3-d]pyrimidin-4-yl)-5,8-diazaspiro[2.6]nonan-8-yl]methanone] were 100 to 1000 nM, 100 to 1000 nM and above 1000 nM.
The corresponding values for `Cc1ncoc1C(=O)N1CCN(c2ncnc3[nH]ccc23)CC2(CC2)C1` [Example 191, (4-methyloxazol-5-yl)-[5-(7H-pyrrolo[2,3-d]pyrimidin-4-yl)-5,8-diazaspiro[2.6]nonan-8-yl]methanone] are 100 to 1000 nM, 100 to 1000 nM and above 1000 nM.
With `Cc1ncoc1C(=O)N1CCCN(c2ncnc3[nH]ccc23)CC12CC2` [Example 192, (4-methyloxazol-5-yl)-[5-(7H-pyrrolo[2,3-d]pyrimidin-4-yl)-5,9-diazaspiro[2.6]nonan-9-yl]methanone], the EC50 on JAK2, at JAK1 and on JAK3 was 100 to 1000 nM each time.
Take `Cc1cc(C(=O)N2CCCN(c3ncnc4[nH]ccc34)CC23CC3)n(C)n1` [Example 193, (2,5-dimethylpyrazol-3-yl)-[5-(7H-pyrrolo[2,3-d]pyrimidin-4-yl)-5,9-diazaspiro[2.6]nonan-9-yl]methanone]: the EC50 on JAK2 was below 100 nM; at JAK1 it was 100 to 1000 nM; at JAK3, above 1000 nM.
The corresponding values for `Cc1nnc(C(=O)N2CCN(c3ncnc4[nH]ccc34)CC3(CC3)C2)o1` [Example 194, (5-methyl-1,3,4-oxadiazol-2-yl)-[5-(7H-pyrrolo[2,3-d]pyrimidin-4-yl)-5,8-diazaspiro[2.6]nonan-8-yl]methanone] are 100 to 1000 nM, 100 to 1000 nM and above 1000 nM.
The corresponding values for `O=C(c1nc[nH]n1)N1CCN(c2ncnc3[nH]ccc23)CC2(CC2)C1` [Example 195, [5-(7H-pyrrolo[2,3-d]pyrimidin-4-yl)-5,8-diazaspiro[2.6]nonan-8-yl]-(1H-1,2,4-triazol-3-yl)methanone] are 100 to 1000 nM, 100 to 1000 nM and above 1000 nM.
For the compound `Cc1cnc(C(=O)N2CCN(c3ncnc4[nH]ccc34)CC3(CC3)C2)cn1` [Example 196, (5-methylpyrazin-2-yl)-[5-(7H-pyrrolo[2,3-d]pyrimidin-4-yl)-5,8-diazaspiro[2.6]nonan-8-yl]methanone], the EC50 on JAK2, at JAK1 and on JAK3 was above 1000 nM in each case.
`Cc1cnc(C(=O)N2CCCN(c3ncnc4[nH]ccc34)CC23CC3)cn1` [Example 197, (5-methylpyrazin-2-yl)-[5-(7H-pyrrolo[2,3-d]pyrimidin-4-yl)-5,9-diazaspiro[2.6]nonan-9-yl]methanone]: the EC50 was 100 to 1000 nM at JAK2, 100 to 1000 nM at JAK1 and above 1000 nM on JAK3.
Turning to `Cc1cncc(C(=O)N2CCCN(c3ncnc4[nH]ccc34)CC23CC3)n1` [Example 198, (6-methylpyrazin-2-yl)-[5-(7H-pyrrolo[2,3-d]pyrimidin-4-yl)-5,9-diazaspiro[2.6]nonan-9-yl]methanone], the concentration giving a half-maximal response (EC50) at JAK2 is 100 to 1000 nM; on JAK1, 100 to 1000 nM; at JAK3, above 1000 nM.
Turning to `Cc1noc(C)c1C(=O)N1CCCN(c2ncnc3[nH]ccc23)CC12CC2` [Example 199, (3,5-dimethylisoxazol-4-yl)-[5-(7H-pyrrolo[2,3-d]pyrimidin-4-yl)-5,9-diazaspiro[2.6]nonan-9-yl]methanone], the EC50 on JAK2, on JAK1 and on JAK3 was above 1000 nM throughout.
As for `O=C(c1ccsn1)N1CCN(c2ncnc3[nH]ccc23)CC2(CC2)C1` [Example 200, isothiazol-3-yl-[5-(7H-pyrrolo[2,3-d]pyrimidin-4-yl)-5,8-diazaspiro[2.6]nonan-8-yl]methanone], the EC50 at JAK2, on JAK1 and at JAK3 was 100 to 1000 nM each time.
`O=C(c1cnsn1)N1CCN(c2ncnc3[nH]ccc23)CC2(CC2)C1` [Example 202, [5-(7H-pyrrolo[2,3-d]pyrimidin-4-yl)-5,8-diazaspiro[2.6]nonan-8-yl]-(1,2,5-thiadiazol-3-yl)methanone]: the EC50 on JAK2, at JAK1 and at JAK3 was 100 to 1000 nM each time.
Take `O=C(c1c[nH]nn1)N1CCN(c2ncnc3[nH]ccc23)CC2(CC2)C1` [Example 204, [5-(7H-pyrrolo[2,3-d]pyrimidin-4-yl)-5,8-diazaspiro[2.6]nonan-8-yl]-(1H-triazol-4-yl)methanone]: the half-maximal effective concentration (EC50) at JAK2, on JAK1 and at JAK3 was 100 to 1000 nM throughout.
As to `O=C(c1c[nH]nn1)N1CCCN(c2ncnc3[nH]ccc23)CC12CC2` [Example 205, [5-(7H-pyrrolo[2,3-d]pyrimidin-4-yl)-5,9-diazaspiro[2.6]nonan-9-yl]-(1H-triazol-4-yl)methanone], the EC50 at JAK2, at JAK1 and at JAK3 was 100 to 1000 nM in each case.
`Cc1[nH]ncc1C(=O)N1CCN(c2ncnc3[nH]ccc23)CC2(CC2)C1` [Example 206, (5-methyl-1H-pyrazol-4-yl)-[5-(7H-pyrrolo[2,3-d]pyrimidin-4-yl)-5,8-diazaspiro[2.6]nonan-8-yl]methanone]: the EC50 at JAK2, at JAK1 and on JAK3 was 100 to 1000 nM throughout.
`Cc1[nH]ncc1C(=O)N1CCCN(c2ncnc3[nH]ccc23)CC12CC2` [Example 207, (5-methyl-1H-pyrazol-4-yl)-[5-(7H-pyrrolo[2,3-d]pyrimidin-4-yl)-5,9-diazaspiro[2.6]nonan-9-yl]methanone]: the results for the EC50 on JAK2, at JAK1 and at JAK3 were 100 to 1000 nM, above 1000 nM and above 1000 nM, respectively.
Regarding `N#Cc1c[nH]c(C(=O)N2CCN(c3ncnc4[nH]ccc34)CC3(CC3)C2)c1` [Example 208, 5-[5-(7H-pyrrolo[2,3-d]pyrimidin-4-yl)-5,8-diazaspiro[2.6]nonane-8-carbonyl]-1H-pyrrole-3-carbonitrile], the EC50 was below 100 nM on JAK2, below 100 nM on JAK1 and 100 to 1000 nM at JAK3.
On to `O=C(c1cnsc1)N1CCN(c2ncnc3[nH]ccc23)CC2(CC2)C1` [Example 210, isothiazol-4-yl-[5-(7H-pyrrolo[2,3-d]pyrimidin-4-yl)-5,8-diazaspiro[2.6]nonan-8-yl]methanone], for which the EC50 at JAK2, at JAK1 and on JAK3 was 100 to 1000 nM in each case.
`O=C(c1cnsc1)N1CCCN(c2ncnc3[nH]ccc23)CC12CC2` [Example 211, isothiazol-4-yl-[5-(7H-pyrrolo[2,3-d]pyrimidin-4-yl)-5,9-diazaspiro[2.6]nonan-9-yl]methanone]: the EC50 at JAK2, at JAK1 and on JAK3 was 100 to 1000 nM throughout.
For the compound `O=C(c1cc(O)[nH]n1)N1CCCN(c2ncnc3[nH]ccc23)CC12CC2` [Example 212, (5-hydroxy-1H-pyrazol-3-yl)-[5-(7H-pyrrolo[2,3-d]pyrimidin-4-yl)-5,9-diazaspiro[2.6]nonan-9-yl]methanone], the EC50 at JAK2, on JAK1 and on JAK3 was 100 to 1000 nM each time.
On to `O=C(c1cncc(F)c1)N1CCN(c2ncnc3[nH]ccc23)CC2(CC2)C1` [Example 213, (5-fluoro-3-pyridyl)-[5-(7H-pyrrolo[2,3-d]pyrimidin-4-yl)-5,8-diazaspiro[2.6]nonan-8-yl]methanone], for which the EC50 on JAK2 was 100 to 1000 nM; at JAK1, 100 to 1000 nM; at JAK3 it was above 1000 nM.
Regarding `O=C(c1cncc(F)c1)N1CCCN(c2ncnc3[nH]ccc23)CC12CC2` [Example 214, (5-fluoro-3-pyridyl)-[5-(7H-pyrrolo[2,3-d]pyrimidin-4-yl)-5,9-diazaspiro[2.6]nonan-9-yl]methanone], the EC50 on JAK2, on JAK1 and on JAK3 was 100 to 1000 nM each time.
For the compound `O=C(Cc1nnn[nH]1)N1CCN(c2ncnc3[nH]ccc23)CC2(CC2)C1` [Example 215, 1-[5-(7H-pyrrolo[2,3-d]pyrimidin-4-yl)-5,8-diazaspiro[2.6]nonan-8-yl]-2-(1H-tetrazol-5-yl)ethanone], the results for the EC50 on JAK2, on JAK1 and on JAK3 were below 100 nM, below 100 nM and 100 to 1000 nM, respectively.
